From PMC11576293, “New series of 4,6-diaryl pyrimidines: facile synthesis and antiproliferative activity as dual EGFR/VEGFR-2 inhibitors” (Frontiers in Chemistry, 2024)

Legend:
[1] = tested on: four cancer cell lines (A-549, MCF-7, Panc-1, HT-29); test: Antiproliferative assay, average over four cancer cell lines; assay type: cell-based; details: Homo sapiens; average of the four cancer cell lines; read-out: Average IC50 (GI50)
From the text: Table 2 presents the four cancer cell lines’ median inhibitory concentration (IC50) and GI50 (average IC50) values.
(§1) The IC50 values were derived from dose-response tests. The reported data are derived from at least two independent studies, each comprising three replicates per concentration. See Supplementary Material A1 for more details.

[2] = Cell viability assay (MTT) on normal cells; assay type: cell-based; details: human, MCF-10A normal mammary gland epithelial cells, 4 days incubation
Protocol: (§2) This experiment examines the impact of the newly developed compounds 9–29 on normal cell lines to assess their safety level. The vitality of the investigated compounds was assessed using the MCF-10 A cell line, a normal human mammary gland epithelial cell line. Following 4 days of incubation on MCF-10 A cells with each examined compound at a concentration of 50 μM, the vitality of the cells was assessed using the MTT test ([Mahmoud et al., 2022]; [Mekheimer et al., 2022]).
as §2, with “The viability” for “The vitality”, “of 9–29” for “of the investigated compounds”, “2022]). Refer to Supplementary Material A1 for more details. […]” for “2022]).”
4.2. Biological evaluation
4.2.1. Cytotoxic activity using MTT Assay and evaluation of IC50
MTT assay was carried out to study the effect of compounds on mammary epithelial cells (MCF-10A). The medium in which cells were propagated contained Dulbecco's modified Eagle's medium (DMEM)/ Ham's F-12 medium (1:1) supplemented with epidermal growth factor (20 ng/mL), hydrocortisone (500 ng/mL), insulin (10 μg/mL), 2 mM glutamine and 10% foetal calf serum.
After every 2-3 days, the cells were passaged using trypsin ethylenediamine tetra acetic acid (EDTA). The cells were seeded at a density of 10^4 cells mL-1 in flat-bottomed culture plates containing 96 wells each. After 24 h, medium was removed from the plates and the compounds in (in 0.1% DMSO) were added (in 200 μL medium to yield a final concentration of 0.1% v/v) to the wells of plates. A single compound was designated with four wells followed by incubation of plates for 96h at 37°C. After incubation, medium was removed completely from the plates followed by addition of MTT (0.4 mg/mL in medium) to each well and subsequent incubation of plates for 3h. MTT (along with the medium) was removed and DMSO (150μL) was added to each well of the culture plates, followed by vertexing and subsequent measurement of absorbance (at 540 nm) using microplate reader. The data are shown as percentage inhibition of proliferation in comparison with controls containing 0.1% DMSO. […]

MCF-7 = test: Antiproliferative assay (MTT); assay type: cell-based; details: Homo sapiens, MCF7, MCF-7 (breast), read-out: Antiproliferative activity IC50 ± SEM, MCF-7
From the text: (§3) The MTT test was employed for this investigation ([Hisham et al., 2022]; [El-Sherief et al., 2019]; [Ramadan et al., 2020]). Table 2 presents the four cancer cell lines’ median inhibitory concentration (IC50) and GI50 (average IC50) values.
as §1, with “The MTT test was employed for this investigation ([Hisham et al., 2022]; [El-Sherief et al., 2019]; [Ramadan et al., 2020]). The IC50” for “The IC50”
(§4) (in 0.1% DMSO) were added (in 200 μL medium to yield a final concentration of 0.1% v/v) to the wells of plates. A single compound was designated with four wells followed by incubation of plates for 96h at 37°C. After incubation, medium was removed completely from the plates followed by addition of MTT (0.4 mg/mL in medium) to each well and subsequent incubation of plates for 3h. MTT (along with the medium) was removed and DMSO (150μL) was added to each well of the culture plates, followed by vertexing and subsequent measurement of absorbance (at 540 nm) using microplate reader. The data are shown as percentage inhibition of proliferation in comparison with controls containing 0.1% DMSO.
(§5) 4.2.1.2. Assay for antiproliferative effect […]
(§6) (10%) and 1 µg/mL each of aprotinin, leupeptin and pepstatin for 120 min. The purification was performed either at 4 °C or on ice. To record autophosphorylation level, EGFR kinase assay was carried out on the basis of DELFIA/Time-Resolved Fluorometry. The compounds were first
(§7) (1 picture or pasted object on this page, not shown here)

A-549 = test: Antiproliferative assay (MTT); assay type: cell-based; details: Homo sapiens, A549, A-549 (lung), read-out: Antiproliferative activity IC50 ± SEM, A-549
From the text: as §3
as §1, with “The MTT test was employed for this investigation ([Hisham et al., 2022]; [El-Sherief et al., 2019]; [Ramadan et al., 2020]). The IC50” for “The IC50”
as §4, §5, §6, §7

Panc-1 = test: Antiproliferative assay (MTT); assay type: cell-based; details: Homo sapiens, Panc-1 (pancreatic), read-out: Antiproliferative activity IC50 ± SEM, Panc-1
From the text: as §3
as §1, with “The MTT test was employed for this investigation ([Hisham et al., 2022]; [El-Sherief et al., 2019]; [Ramadan et al., 2020]). The IC50” for “The IC50”
as §4, §5, §6, §7

HT-29 = test: Antiproliferative assay (MTT); assay type: cell-based; details: Homo sapiens, HT-29 (colon), read-out: Antiproliferative activity IC50 ± SEM, HT-29
From the text: as §3
as §1, with “The MTT test was employed for this investigation ([Hisham et al., 2022]; [El-Sherief et al., 2019]; [Ramadan et al., 2020]). The IC50” for “The IC50”
as §4, §5, §6, §7

Bcl-2 = Bcl-2 inhibition assay; assay type: cell-based, human; details: A-549 cell line
Protocol: 4.2.8. Bcl-2 inhibition assay
Mix all reagents thoroughly without foaming before use. Wash the microwells twice with approximately 300 μL Wash Buffer per well with thorough aspiration of microwell contents between washes. Take caution not to scratch the surface of the microwells. After the last wash, empty the wells and tap microwell strips on absorbent pad or paper towel to remove excess Wash Buffer. Use the microwell strips immediately after washing or place upside down on a wet absorbent paper for not longer than 15 minutes. […] Add 100 μL of Sample […]
Diluent in duplicate to all standard wells and to the blank wells. Prepare standard (1:2 dilution) in duplicate ranging from 32 ng/mL to 0.5 ng/mL. Add 100 μL of Sample Diluent, in duplicate, to the blank wells. Add 80 μL of Sample Diluent, in duplicate, to the sample wells. Add 20 μL of each Sample, in duplicate, to the designated wells. Add 50 μL of diluted biotin-conjugate to all wells, including the blank wells. Cover with a plate cover and incubate at room temperature, on a microplate shaker at 100 rpm if available, for 2 hours. Remove plate cover and empty the wells.
Wash microwell strips 3 times as described in step 2. Add 100 μL of diluted Streptavidin-HRP to all wells, including the blank wells. Cover with a plate cover and incubate at room temperature, on a microplate shaker at 100 rpm if available, for 1 hour. Remove plate cover and empty the wells.
Wash microwell strips 3 times as described in step 2. Proceed to the next step. Pipette 100 μl of mixed TMB Substrate Solution to all wells, including the blanks. Incubate the microwell strips at room temperature (18° to 25°C) for about 15 minutes, if available on a rotator set at 100 rpm.
Avoid direct exposure to intense light. The point, at which the substrate reaction is stopped, is often determined by the ELISA reader. Many ELISA readers record absorbance only up to 2.0
O.D. Therefore, the color development within individual microwells must be watched by the person running the assay and the substrate reaction stopped before positive wells are no longer properly detectable. Stop the enzyme reaction by quickly pipetting 100 μL of Stop Solution into each well, including the blank wells. It is important that the Stop Solution is spread quickly and uniformly throughout the microwells to completely inactivate the enzyme. Results must be read immediately after the Stop Solution is added or within one hour i f the microwell strips are stored at 2 - 8°C in the dark. Read absorbance of each microwell on a spectrophotometer using 450 nm as the primary wavelength.

Bax = Bax activation assay; assay type: cell-based, human; details: for Bax Conc: A-549 cancer cells
Protocol: 4.2.7. Bax activation assay
Bring all reagents, except the human Bax-α Standard, to room temperature for at least 30 minutes prior to opening. The human Bax-α Standard solution should not be left at room temperature for more than 10 minutes. All standards, controls and samples should be run in duplicate. Refer to the Assay Layout Sheet to determine the number of wells to be used and put any remaining wells with the desiccant back into the pouch and seal the ziploc. Store unused wells at 4 °C. Pipet 100 μL of Assay Buffer into the S0 (0 pg/mL standard) wells. Pipet 100 μL of Standards #1 through #6 into the appropriate wells. Pipet 100 μL of the Samples into the appropriate wells. Tap the plate gently to mix the contents. Seal the plate and incubate at room temperature on a plate shaker for 1 hour at ~500 rpm. Empty the contents of the wells and wash by adding 400 μL of wash solution to every well. Repeat the wash 4 more times for a total of 5 washes. After the final wash, empty or aspirate the wells and firmly tap the plate on a lint free paper towel to remove any remaining wash buffer.
Pipet 100 μL of yellow Antibody into each well, except the Blank. Seal the plate and incubate at room temperature on a plate shaker for 1 hour at ~500 rpm. Empty the contents of the wells and wash by adding 400 μL of wash solution to every well. Repeat the wash 4 more times for a total of 5 washes. After the final wash, empty or aspirate the wells and firmly tap the plate on a lint free paper towel to remove any remaining wash buffer. Add 100 μL of blue Conjugate to each well, except the Blank. Seal the plate and incubate at room temperature on a plate shaker for 30 minutes […]
Pipet 100 μL of Substrate Solution into each well. Incubate for 30 minutes at room temperature on a plate shaker at ~500 rpm. Pipet 100 μL Stop Solution to each well. Blank the plate reader against the Blank wells, read the optical density at 450 nm. Calculate the average net Optical Density (OD) bound for each standard and sample by subtracting the average Blank OD from the average OD for each standard and sample. Using linear graph paper, plot the Average Net OD for each standard versus Bax concentration in each standard. Approximate a straight line through the points.
The concentration of Bax in the unknowns can be determined by interpolation. […]

Row | IC50 [1] [nM] | melting point [°C] | SMILES | viability at 4 days, 50 µM [2] [%] | IC50 (MCF-7) [nM] | IC50 (A-549) [nM] | IC50 (Panc-1) [nM] | IC50 (HT-29) [nM] | Bcl-2 Conc (Bcl-2) [ng/mL] | Bcl-2 Fold reduction (Bcl-2; versus control) [fold] | Bax Conc (Bax) [pg/mL] | Bax Conc (Bax; listed as staurosporine) [pg/mL] | Bax Fold change (Bax; compared to untreated A-549 cancer cells) [fold]
1 | 83 | 245 to 247 | COc1ccc(-c2cc(-c3cccc(OC)c3)nc(SCc3ccccc3)n2)cc1 [Compound 21, 2-(Benzylthio)-6-(3-methoxyphenyl)-4-(4-methoxyphenyl)pyrimidine] | 89 | 86 ± 8 | 83 ± 7 | 82 ± 8 | 82 ± 8 |  |  |  |  | 
2 |  |  | C#Cc1cccc(Nc2ncnc3cc(OCCOC)c(OCCOC)cc23)c1 [Erlotinib, reference compound] |  | 40 ± 3 | 30 ± 3 | 30 ± 3 | 30 ± 3 |  |  |  |  | 
3 |  |  | CN[C@@H]1C[C@H]2O[C@@](C)([C@@H]1OC)n1c3ccccc3c3c4c(c5c6ccccc6n2c5c31)C(=O)NC4 [Staurosporine, reference compound] |  |  |  |  |  | 1.10 | 5 | 280 ± 5 | 280 | 35
